Reference: patent US10633386B2, “BET protein degraders” (THE REGENTS OF THE UNIVERSITY OF MICHIGAN, priority 2016, dated 2020)
Read-outs that look alike come from different tables or passages of the source. Each block holds one compound with its values, some of them ahead of it.

Key:
H1975 = assay: Cell growth inhibition (CellTiter-Glo), NSCLC line H1975; type: cell-based; settings: H1975 non-small cell lung cancer cell line, 4 days
Experimental: (§1) Cell growth inhibitory activity of representative BET bromodomain degraders in representative non-small cell lung cancer cell lines was determined using the CellTiter-Glo® Luminescent Cell Viability Assay. Cells were seeded in 384-well white opaque cell culture plates at a density of 2,000 cells/well with serially diluted compounds and incubated at 37° C. in an atmosphere of 95% air and 5% CO2 for 4 days. Cell viability was determined using the CellTiter-Glo® Luminescent Cell Viability Assay Kit (Promega, Madison, Wis.) according to the manufacture's instruction. Briefly, a volume of CellTiter-Glo® Reagent equal to the volume of cell culture medium was added to each well, and then the plates were incubated at room temperature for 10-20 minutes. The luminescent signal was measured using a Tecan Infinite M1000 multimode microplate reader (Tecan, Morrisville, N.C.). The half maximal inhibitory concentration (IC50) was calculated using the GraphPad Prism 5 software (GraphPad Software, La Jolla, Calif.). Cpd. A is a BET bromodomain inhibitor, see U.S. Appl.

H2444 = assay: Cell growth inhibition (CellTiter-Glo), NSCLC line H2444; type: cell-based; settings: H2444 non-small cell lung cancer cell line, 4 days
Experimental: as §1

H1869 = assay: Cell growth inhibition (CellTiter-Glo), NSCLC line H1869; type: cell-based; settings: H1869 non-small cell lung cancer cell line, 4 days
Experimental: as §1

CALU6 = assay: Cell growth inhibition (CellTiter-Glo), NSCLC line CALU6; type: cell-based; settings: CALU6 non-small cell lung cancer cell line, 4 days
Experimental: as §1

H1299 = assay: Cell growth inhibition (CellTiter-Glo), NSCLC line H1299; type: cell-based; settings: H1299 non-small cell lung cancer cell line, 4 days
Experimental: as §1

H2170 = assay: Cell growth inhibition (CellTiter-Glo), NSCLC line H2170; type: cell-based; settings: H2170 non-small cell lung cancer cell line, 4 days
Experimental: as §1

H2030 = assay: Cell growth inhibition (CellTiter-Glo), NSCLC line H2030; type: cell-based; settings: H2030 non-small cell lung cancer cell line, 4 days
Experimental: as §1

H2228 = assay: Cell growth inhibition (CellTiter-Glo), NSCLC line H2228; type: cell-based; settings: H2228 non-small cell lung cancer cell line, 4 days
Experimental: as §1

H1437 = assay: Cell growth inhibition (CellTiter-Glo), NSCLC line H1437; type: cell-based; settings: H1437 non-small cell lung cancer cell line, 4 days
Experimental: as §1

H460 = assay: Cell growth inhibition (CellTiter-Glo), NSCLC line H460; type: cell-based; settings: H460 non-small cell lung cancer cell line, 4 days
Experimental: as §1

H647 = assay: Cell growth inhibition (CellTiter-Glo), NSCLC line H647; type: cell-based; settings: H647 non-small cell lung cancer cell line, 4 days
Experimental: as §1

Lovo = assay: Cell growth inhibition (CellTiter-Glo), colon cancer line Lovo; type: cell-based
Experimental: as §1, with “Appl. No. 62/121,637, having the following structure:” for “Appl.”
(§2) Cell growth inhibitory activity of representative BET bromodomain degraders in representative colon cancer cell lines, see Table 7, was determined as described in Example 17.

SW837 = assay: Cell growth inhibition (CellTiter-Glo), colon cancer line SW837; type: cell-based
Experimental: as §1, with “Appl. No. 62/121,637, having the following structure:” for “Appl.”
as §2

SW403 = assay: Cell growth inhibition (CellTiter-Glo), colon cancer line SW403; type: cell-based
Experimental: as §1, with “Appl. No. 62/121,637, having the following structure:” for “Appl.”
as §2

T84 = assay: Cell growth inhibition (CellTiter-Glo), colon cancer line T84; type: cell-based
Experimental: as §1, with “Appl. No. 62/121,637, having the following structure:” for “Appl.”
as §2

LS411N = assay: Cell growth inhibition (CellTiter-Glo), colon cancer line LS411N; type: cell-based
Experimental: as §1, with “Appl. No. 62/121,637, having the following structure:” for “Appl.”
as §2

MDA-MB-453 = assay: Cell growth inhibition (CellTiter-Glo), breast cancer line MDA-MB-453; type: cell-based; settings: MDA-MB-453 breast cancer cell line, 4 days
Experimental: (§3) Cell growth inhibitory activity of representative BET bromodomain degraders in representative breast cancer cell lines was determined using the CellTiter-Glo® Luminescent Cell Viability Assay. SUM-52 and SUM-159 cell lines were established at the University of Michigan Comprehensive Cancer Center. All the other breast cancer cell lines were obtained from the ATCC (Manassas, Va.). Cells were seeded in 384-well cell culture plates at a density of 1,000-2,500 cells/well with serially diluted compounds and incubated at 37° C. in an atmosphere of 95% air and 5% CO2 for 4 days. Cell viability was determined using the CellTiter-Glo® Luminescent Cell Viability Assay Kit (Promega, Madison, Wis.) according to the manufacture's instruction. Briefly, a volume of CellTiter-Glo® Reagent equal to the volume of cell culture medium was added to each well, and then the plates were incubated at room temperature for 20-60 minutes. The luminescent signal was measured using a Tecan Infinite M1000 multimode microplate reader (Tecan, Morrisville, N.C.). The half maximal inhibitory concentration (IC50) was calculated using the GraphPad Prism 5 software (GraphPad Software, La Jolla, Calif.). “Thd” is thalidomide.

HCC1187 = assay: Cell growth inhibition (CellTiter-Glo), breast cancer line HCC1187; type: cell-based; settings: 4 days
Experimental: as §3

MDA-MB-231 = assay: Cell growth inhibition (CellTiter-Glo), breast cancer line MDA-MB-231; type: cell-based, human; settings: MDA-MB-231 breast cancer cell line, 4 days
Experimental: as §3

HCC1937 = assay: Cell growth inhibition (CellTiter-Glo), breast cancer line HCC1937; type: cell-based; settings: 4 days
Experimental: as §3

HCC1428 = assay: Cell growth inhibition (CellTiter-Glo), breast cancer line HCC1428; type: cell-based; settings: 4 days
Experimental: as §3

HCC1395 = assay: Cell growth inhibition (CellTiter-Glo), breast cancer line HCC1395; type: cell-based; settings: 4 days
Experimental: as §3

- IC50 (H1975; Homo sapiens, NCI-H1975, 96 h): 16 nM
- IC50 (H2444; Homo sapiens, NCI-H2444, 96 h): 28 nM
- IC50 (H1869; 96 h): 93 nM
- IC50 (CALU6; Homo sapiens, Calu-6, 96 h): 33 nM
- IC50 (H1299; Homo sapiens, NCI-H1299, 96 h): 228 nM
- IC50 (H2170; Homo sapiens, NCI-H2170, 96 h): 195 nM
- IC50 (H2030; Homo sapiens, NCI-H2030, 96 h): 269 nM
- IC50 (H2228; Homo sapiens, NCI-H2228, 96 h): 610 nM
- IC50 (H1437; Homo sapiens, NCI-H1437, 96 h): 818 nM
- IC50 (H460; Homo sapiens, NCI-H460, 96 h): 51000 nM
- IC50 (H647; Homo sapiens, NCI-H647, 96 h): 789 nM
- IC50 (Lovo; Homo sapiens): 46 ± 49 nM
- IC50 (SW837; Homo sapiens): 230 ± 67 nM
- IC50 (SW403; Homo sapiens, SW-403): 219 ± 190 nM
- IC50 (T84; Homo sapiens): 690 ± 300 nM
- IC50 (LS411N; Homo sapiens, LS-411N): 560 ± 380 nM
SMILES: CCn1nc(C2CC2)cc1Nc1nc(C(=O)NCCCCNc2cccc3c2C(=O)N(C2CCC(=O)NC2=O)C3=O)nc2[nH]c3cc(-c4c(C)noc4C)c(OC)cc3c12 (stereo not shown) [Cpd. No. 9]

- IC50 (H1975): > 5000 nM
- IC50 (H2444): 3000 nM
- IC50 (H1869): > 5000 nM
- IC50 (CALU6): > 5000 nM
- IC50 (H1299): > 5000 nM
- IC50 (H2170): > 5000 nM
- IC50 (H2030): > 5000 nM
- IC50 (H2228): > 5000 nM
- IC50 (H1437): > 5000 nM
- IC50 (H460): > 5000 nM
- IC50 (H647): > 5000 nM
- IC50 (MDA-MB-453): > 5000 nM
- IC50 (HCC1187): > 5000 nM
- IC50 (MDA-MB-231): 1830 nM
- IC50 (HCC1937): > 5000 nM
- IC50 (HCC1428): > 5000 nM
- IC50 (HCC1395): > 5000 nM
- IC50 (Lovo): > 5000 nM
- IC50 (SW837): > 5000 nM
- IC50 (SW403): > 5000 nM
- IC50 (T84): > 5000 nM
- IC50 (LS411N): > 5000 nM
SMILES: Cc1sc2c(c1C)C(c1ccc(Cl)cc1)=N[C@@H](CC(=O)NCCCCNC(=O)COc1cccc3c1C(=O)N(C1CCC(=O)NC1=O)C3=O)c1nnc(C)n1-2 (stereo partly shown) [dBET1, reference compound]

SMILES: CCn1nc(C2CC2)cc1Nc1nc(COC)nc2[nH]c3cc(-c4c(C)noc4C)c(OC)cc3c12 [Cpd. A, reference compound]
- IC50 (H1975; Homo sapiens, NCI-H1975, 96 h): 40 nM
- IC50 (H2444; Homo sapiens, NCI-H2444, 96 h): 2720 nM
- IC50 (H1869; 96 h): 60 nM
- IC50 (CALU6; Homo sapiens, Calu-6, 96 h): 630 nM
- IC50 (H1299; Homo sapiens, NCI-H1299, 96 h): 60 nM
- IC50 (H2170; Homo sapiens, NCI-H2170, 96 h): 20 nM
- IC50 (H2030; Homo sapiens, NCI-H2030, 96 h): 110 nM
- IC50 (H2228; Homo sapiens, NCI-H2228, 96 h): 2400 nM
- IC50 (H1437; Homo sapiens, NCI-H1437, 96 h): 140 nM
- IC50 (H460; Homo sapiens, NCI-H460, 96 h): 1790 nM
- IC50 (H647; Homo sapiens, NCI-H647, 96 h): 80 nM
- IC50 (MDA-MB-453; Homo sapiens, 96 h): 40 nM
- IC50 (HCC1187; Homo sapiens, 96 h): 960 nM
- IC50 (MDA-MB-231; Homo sapiens, 96 h): 220 nM
- IC50 (HCC1937; Homo sapiens, 96 h): > 5000 nM
- IC50 (HCC1428; Homo sapiens, 96 h): 50 nM
- IC50 (HCC1395; Homo sapiens, 96 h): 1050 nM
- IC50 (Lovo; Homo sapiens): 44 ± 17 nM
- IC50 (SW837; Homo sapiens): 84 ± 20 nM
- IC50 (SW403; Homo sapiens, SW-403): 102 ± 23 nM
- IC50 (T84; Homo sapiens): 413 ± 100 nM
- IC50 (LS411N; Homo sapiens, LS-411N): 110 ± 90 nM

SMILES: CCn1nc(C2CC2)cc1Nc1nc(C(=O)NCCCOCCOCCOCCCNc2cccc3c2C(=O)N(C2CCC(=O)NC2=O)C3=O)nc2[nH]c3cc(-c4c(C)noc4C)c(OC)cc3c12 (stereo not shown) [Cpd. No. 4]
- IC50 (H1975; Homo sapiens, NCI-H1975, 96 h): 3 nM
- IC50 (H2444; Homo sapiens, NCI-H2444, 96 h): 4 nM
- IC50 (H1869; 96 h): 9 nM
- IC50 (CALU6; Homo sapiens, Calu-6, 96 h): 9 nM
- IC50 (H1299; Homo sapiens, NCI-H1299, 96 h): 69 nM
- IC50 (H2170; Homo sapiens, NCI-H2170, 96 h): 99 nM
- IC50 (H2030; Homo sapiens, NCI-H2030, 96 h): 137 nM
- IC50 (H2228; Homo sapiens, NCI-H2228, 96 h): 174 nM
- IC50 (H1437; Homo sapiens, NCI-H1437, 96 h): 329 nM
- IC50 (H460; Homo sapiens, NCI-H460, 96 h): 505 nM
- IC50 (H647; Homo sapiens, NCI-H647, 96 h): 598 nM
- IC50 (MDA-MB-453; Homo sapiens, 96 h): 2 nM
- IC50 (HCC1187; Homo sapiens, 96 h): 3 nM
- IC50 (MDA-MB-231; Homo sapiens, 96 h): 4 nM
- IC50 (HCC1937; Homo sapiens, 96 h): 8 nM
- IC50 (HCC1428; Homo sapiens, 96 h): 13 nM
- IC50 (HCC1395; Homo sapiens, 96 h): 277 nM
- IC50 (Lovo; Homo sapiens): 13 ± 14 nM
- IC50 (SW837; Homo sapiens): 76 ± 30 nM
- IC50 (SW403; Homo sapiens, SW-403): 42 ± 10 nM
- IC50 (T84; Homo sapiens): 110 ± 30 nM
- IC50 (LS411N; Homo sapiens, LS-411N): 100 ± 60 nM
